# Structures can show the parent of a compound that is named as a salt.
# Test system: A/PuertoRico/8/1934 (H1N1 H274Y)
# Type: cell-based, influenza A virus
row,SMILES,IC50
1,CCCN(CCc1cccs1)[C@H]1CCc2c(O)cccc2C1 [Rotigotine],8.6 µM
2,O=C(c1ccc(OCCCc2cnc[nH]2)cc1)C1CC1 [Ciproxifan],5.9 µM
3,"CC(COc1ccccc1)NC(C)C(O)c1ccc(O)cc1 (stereo not drawn) [Isoxsuprine, Isoxsuprine hydrochloride]",9.3 µM

# From PMC12069340 (Frontiers in Cellular and Infection Microbiology, 2025)
